Experimental data: patent publication US12486214B2, “Rosmarinic acid derivative, Rosmarinic acid-derived particles, composition containing same for treating inflammatory disease” (KOREA ADVANCED INSTITUTE OF SCIENCE AND TECHNOLOGY, priority 2020, dated 2025)
Like-named read-outs stand apart in the source and are kept apart here.

Assays:
[1] = system: inflammatory bowel disease model mice; test: Effect of oral HA-RANPs (and HA, RA, 5-ASA) on inflammatory bowel disease model mice (3% DSS); assay type: in vivo; settings: 5 times: HA-RANPs 100 mg/kg, HA 85 mg/kg, RA 15 mg/kg, 5-ASA 100 mg/kg
Description: To investigate the antiinflammatory therapeutic efficacy of HA-RANPs in inflammatory bowel disease model mice, the present inventors performed the following tests. By using the inflammatory bowel disease model in which 3% DSS and drinking water were administered to mice (C57BL/6, 6 weeks old, female, 7-day acclimatization) for 5 days, three dose concentrations (20, 50, and 100 mg/kg) of HA-RANPs were orally administered for 5 days (D+1 to D+5, one time/day) for a total of 5 times. The degree of disease progression and the antiinflammatory effect of HA-RANPs were examined through weight changes (measured daily) of all groups of mice and the extraction and tests of the large intestine on the last day.
In addition, the myeloperoxidase (MPO) activity and inflammatory cytokine expression were examined through ELISA assay. Specifically, the same portion of each mouse colon sample was cut, pre-treated, and minced, and then a predetermined amount thereof was centrifuged to obtain a supernatant, and thereafter, the supernatant was subjected to the following assay. The MPO activity is an index to evaluate the infiltration of neutrophils into the inflamed tissue. The measurement of MPO activity is disclosed in Grisham et al. (1990) or the like.
The change in extent of inflammation in the colon was investigated by histopathological examination, that is, examining the degrees of structural integrity loss, crypt destruction, and mucosal surface changes.
The present inventors evaluated the effect of the HA-RANPs of the present disclosure on inflammatory bowel disease model mice through the comparison with HA and RA. The inflammatory bowel disease model was induced by the same method as in the above-described experiment, wherein 100 mg/kg of HA-RANPs as a drug and the equal amounts of Free HA (85 mg/kg), RA (15 mg/kg), and 5-amino salicylic acid (5-ASA) (100 mg/kg) as positive drug controls were administered orally (a total of 5 times, one time/day, D+1 to D+5).

[2] = in vivo; cited from earlier work
[3] = Particle size, zeta potential and morphology (DLS/PCS, TEM); assay type: physicochemical
Description: PEG-RA (20 mg) was dissolved in 4 mL of a 1:3 mixture (v/v) of chloroform:methanol and mixed for several minutes. The organic solvent was then removed by rotary vacuum evaporation and was further dried under a nitrogen flow for 30 minutes to yield a film layer. The film layer was suspended in 1 mL of PBS (137 mM NaCl, 2.7 mM KCl, 10 mM Na2HPO4, 2 mM KH2PO4, pH 7.4) and the resulting micelle suspension was sonicated in a bath sonicator (50 W, 40 kHz) for 10 minutes to yield uniform-sized RANPs. The micelle solution was maintained at 4° C., and directly used in the experiments below. The particle size of RANPs was analyzed by photon correlation spectroscopy (PCS) using a Nanosizer ZS90 (Malvern Instrument Ltd., Malvern, UK) equipped with 4.0 mW HeNe laser and an avalanche photodiode detector operating at 633 nm. Zeta potential was also measured at 25° C. in aqueous solutions (pH 7) by using the same equipment. The morphological characteristics of RANPs were examined using negative-staining transmission electron microscopy (TEM). Briefly, a drop of the diluted sample was placed on copper grids coated with a carbon film, stained with 0.5% w/v uranyl acetate solution, and dried at room temperature. The grids were imaged using a Tecnai F20 (FEI Co., Hillsboro, OR, USA) transmission electron microscope. […]
The hydrodynamic size and zeta potential of RANPs in phosphate buffer solution (pH 7.4), measured by dynamic light scattering (DLS), were 67.5±3.5 nm and −33.70 mV, respectively, indicating the exposure of the PEG layer on the surface of nanoparticles (FIG. 1C and Table 1).
The product was then analyzed through UV-Vis spectrometry using Beckman Coulter DU-800 UV-Vis spectrometer. The particle size of the HA-RA nanoparticles was obtained by measuring the hydrodynamic size of HA-RA nanoparticles in phosphate buffer solution (pH 7.4), measured by dynamic light scattering (DLS). […]
The LMWC-RA of the present disclosure was prepared into nanoparticles by the method shown in Example 8, and then the hydrodynamic size and zeta potential value thereof were measured.

[4] = free RA, rats, intravenous 0.625 mg/kg; cited from earlier work
[5] = Solubility in distilled water or DMSO; assay type: physicochemical

Compound	MPO activity and pro-inflammatory cytokine levels [1]	body weight loss and colon length shortening on day 10 [1]	colon histopathology (H&E stained biopsy) [1]	expression of tight junction-related genes ZO-1, claudin-1, and occludin in colon [1]	time within which RA is usually excreted from the body [2] [min]	Conductivity [3] [mS/cm]	Mobility [3] [μm cm/Vs]	Zeta potential [3] [mV]	area under the curve (AUC) [4] [ng·h/mL]	circulation (or elimination) half-life (t1/2) [4] [min]	mean residence time (MRT) [4] [min]	solubility ([5]; DMSO, organic solvent or mixture, read-out: solubility in DMSO) [mg/mL]	dissolution in distilled water ([5]; at 5 mg/ml)	solubility ([5]; distilled water, water, read-out: solubility in distilled water) [mg/mL]
Nc1ccc(O)c(C(=O)O)c1 [5-ASA, 5-amino salicylic acid]	somewhat relieved	significantly low	slightly relieved	improved										
O=C(/C=C/c1ccc(O)c(O)c1)O[C@H](Cc1ccc(O)c(O)c1)C(=O)O [Rosmarinic acid (RA), rosmarinic acid]	somewhat relieved	slight efficacy	slightly relieved	improved	≤ 30	24.10	−1.217	−15.53	4090	42.9	50.1	≤ 25	only partially dissolved	≤ 0.041
